Data reported in article PMC3348126, “Pharmacogenetics Meets Metabolomics: Discovery of Tryptophan as a New Endogenous OCT2 Substrate Related to Metformin Disposition” (PLoS ONE, 2012).
Values belong to the compound of their own block, whether it stands above or below them.

Experiments:
Format in all cases: cell-based
[1] = biological target: T1, Organic cation transporter 2 (OCT2) (Homo sapiens, UniProt O15244); experiment: inhibition of [3H]MPP+ uptake and direct [3H]tryptophan uptake in OCT2-expressing oocytes
T1 construct: gene SLC22A2

[2] = biological target: T2, Organic cation transporter 2 (OCT2) 808G>T variant (Homo sapiens, UniProt O15244); experiment: [3H]tryptophan uptake ([…]) in oocytes expressing the variant
T2 construct: gene SLC22A2; OCT2 808G>T variant expressed in oocytes
T2 sequence (O15244 1-555): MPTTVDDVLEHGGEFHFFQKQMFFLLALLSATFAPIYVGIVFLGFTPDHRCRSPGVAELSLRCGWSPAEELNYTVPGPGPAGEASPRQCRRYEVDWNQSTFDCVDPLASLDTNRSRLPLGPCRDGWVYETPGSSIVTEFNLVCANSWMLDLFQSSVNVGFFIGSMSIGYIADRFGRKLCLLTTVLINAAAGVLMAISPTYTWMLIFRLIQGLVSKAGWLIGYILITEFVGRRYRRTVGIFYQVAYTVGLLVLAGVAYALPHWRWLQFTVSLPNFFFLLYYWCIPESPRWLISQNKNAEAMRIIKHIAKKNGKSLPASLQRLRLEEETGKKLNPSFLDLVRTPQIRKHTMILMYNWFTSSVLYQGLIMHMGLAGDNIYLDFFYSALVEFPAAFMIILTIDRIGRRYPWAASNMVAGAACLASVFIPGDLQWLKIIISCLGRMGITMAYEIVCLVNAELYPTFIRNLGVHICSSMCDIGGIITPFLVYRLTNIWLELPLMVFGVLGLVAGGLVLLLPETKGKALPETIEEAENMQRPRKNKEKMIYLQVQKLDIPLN

[3] = biological target: T3, OCT1 (Homo sapiens, UniProt O15245); experiment: inhibition of OCT1-mediated [3H]MPP+ uptake and direct tryptophan uptake in oocytes; details: read-out: % inhibition at 1 mM
T3 construct: gene SLC22A1; OCT1 expressed in oocytes (pcDNA3.1-OCT1)
T3 sequence (O15245 1-554): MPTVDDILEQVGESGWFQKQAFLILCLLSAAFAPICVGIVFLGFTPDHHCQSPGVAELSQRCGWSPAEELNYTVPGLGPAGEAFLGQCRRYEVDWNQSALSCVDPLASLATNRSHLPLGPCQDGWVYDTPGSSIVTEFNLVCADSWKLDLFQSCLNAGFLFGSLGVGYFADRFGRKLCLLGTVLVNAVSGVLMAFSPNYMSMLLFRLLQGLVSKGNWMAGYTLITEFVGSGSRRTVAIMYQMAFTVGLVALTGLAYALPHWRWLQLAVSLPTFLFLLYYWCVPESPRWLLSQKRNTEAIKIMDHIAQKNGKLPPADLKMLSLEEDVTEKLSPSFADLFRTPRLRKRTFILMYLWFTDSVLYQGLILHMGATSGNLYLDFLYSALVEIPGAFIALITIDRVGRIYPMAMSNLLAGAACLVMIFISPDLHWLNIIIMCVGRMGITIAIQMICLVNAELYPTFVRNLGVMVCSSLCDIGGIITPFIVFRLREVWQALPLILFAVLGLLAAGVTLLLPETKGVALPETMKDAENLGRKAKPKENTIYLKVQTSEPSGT

[4] = biological target: T1, Organic cation transporter 2 (OCT2); experiment: [3H]MPP+ uptake ([…]) in OCT2-expressing oocytes, water-injected background subtracted
[5] = biological target: T4, Organic cation transporter 2 (OCT2) (Homo sapiens, UniProt O15244); experiment: inhibition of [3H]MPP+ uptake in OCT2-expressing oocytes
T4 construct: gene SLC22A2; OCT2 expressed in oocytes
T4 sequence (O15244 1-555): T2 sequence (O15244 1-555)

SMILES: N[C@@H](Cc1c[nH]c2ccccc12)C(=O)O [L-tryptophan]
IC50 [1]: 6.11 mM
[3H]tryptophan uptake (100 nM) in oocytes expressing the variant [2]: 0.14 fmol/min/oocyte
inhibition at 1000 µM [3]: 50%

SMILES: C[n+]1ccc(-c2ccccc2)cc1 [MPP+]
[3H]MPP+ uptake (18.5 nM) in OCT2-expressing oocytes, water-injected background [4]: 2.9 fmol/min/oocyte

IC50 [5]: 51.5 mM
SMILES: O=c1ccn([C@@H]2O[C@H](CO)[C@@H](O)[C@H]2O)c(=O)[nH]1 [uridine]
